Measurements taken from article PMC3805573, “Methylglyoxal Evokes Pain by Stimulating TRPA1” (PLoS ONE, 2013).

Experiments:
[1] = test system: TRPA1; assay: Excised inside-out patches, TRPA1 channel activity; type: cell-based; settings: inside-out configuration, applied to intracellular face
Method: (§1) DRG neurons and TRPA1 CHO cells were studied under voltage-clamp conditions using an Axopatch 200B amplifier and pClamp 10.0 software (Molecular Devices, Sunnyvale, CA). Except where stated otherwise, whole cell recordings were performed at a holding potential of –60 mV using an extracellular solution with the composition described above for [Ca^2+]i measurements. Borosilicate glass pipettes (2–5 MΩ, 75–80% series resistance compensation) were filled with (in mM) 140 KCl, 1 CaCl2, 2 MgATP, 10 EGTA, and 10 HEPES buffered to pH 7.4 (KOH). Excised inside-out patches were recorded using a Ca^2+-free solution containing (in mM) 140 NaCl, 5 KCl, 1 MgCl2, 10 HEPES and 1 EGTA, pH 7.4 (NaOH) in the pipettes and perfused with 140 KCl, 2 MgATP, 1 EGTA, and 10 HEPES (pH 7.4). DRG neurons were studied using an intracellular solution containing (in mM) 140 CsCl, 1 CaCl2, 2 MgATP, 10 EGTA and 10 HEPES, pH 7.4 (CsOH). Drugs were applied by local microperfusion with a rapid solution changer (RSC-200, Biologic, Claix, France).

[2] = test system: Trpa1+/+ and Trpa1-/- mice; assay: Intraplantar injection, pain-related behaviors; type: in vivo; settings: intraplantar 250 nmoles/paw
Method: Data shown are from male and female homozygote Trpa1^− ^/− and Trpa1 ^+/+. The Trpa1-null mice and wild-type littermates were bred from heterozygotic mice provided by Drs. Kelvin Kwan and David Corey (Harvard Medical School, Boston, MA).
Methylglyoxal (250 nmoles in 25 µl saline) was injected subcutaneously into the plantar surface of one of the hind paws using a 50 µl luer-syringe (Hamilton Co.) fitted with a 26-gauge x 3/8 inch intradermal needle. Immediately after injection, mice were placed inside a Perspex chamber and the duration of the pain-related behaviors (licking and biting or flinching and shaking of the injected paw) recorded using a digital stop-watch. Total pain response times over the first 2 minutes were used for analysis as the pain behaviors were largely confined to this period. The glyoxalase 1 inhibitor Sr-p-Bromobenzylglutathione cyclopentyl diester (50 mg/kg) was dissolved in 2% DMSO/20% Tween 80 in saline and administered by intraperitoneal (i.p.) injection (5 ml/kg).

[3] = test system: untransfected CHO cells; assay: [Ca2+]i in untransfected CHO cells; type: cell-based; settings: untransfected CHO cells or absence of extracellular Ca2+ (data not shown)
Method: (§2) Untransfected CHO cells and CHO cells expressing mouse or human TRPA1 were grown in MEM Glutamax or AQ medium supplemented with penicillin (100 U/ml), streptomycin (100 µg/ml), and FCS (10%). Plasmids encoding mutated TRPA1 channels were kindly provided by Dr. Ardem Patapoutian. All media, serum and antibiotics were from Invitrogen (Paisley, UK) or Sigma (Poole, UK).
(§3) Cells were loaded with 2 µM Fura-2 AM (Molecular Probes, Paisley, UK) in the presence of 1 mM probenecid for ∼1 hr. The experiments were performed in a physiological saline solution containing (in mM) 140 NaCl, 5 KCl, 10 glucose, 10 HEPES, 2 CaCl2, and 1 MgCl2, buffered to pH 7.4 with NaOH. Compounds were applied to cells by local continuous microperfusion of solution through a fine tube placed in close proximity of the cells studied. Images of a group of cells were captured every 2 sec using 340 and 380 nm excitation wavelengths with emission measured at 520 nm with a microscope based imaging system (PTI, New Jersey). […]
(§4) Changes in intracellular calcium ([Ca^2+]i) in response to agonists were determined in TRPA1 expressing CHO cells and MDCK cells using a Flexstation 3 (Molecular Devices). […] Basal emission ratios (340 nm/380 nm) were measured and changes in ratio determined at various times after compound addition.

[4] = target: T1, human TRPA1 (Homo sapiens, UniProt O75762); assay: [Ca2+]i-responses in CHO cells expressing human TRPA1; type: cell-based; settings: CHO cells expressing human TRPA1, extracellular application; read-out: EC50, increases in [Ca2+]i
T1 construct: expressed in transfected cells; host or cells: CHO cells
Method: as §2, §3, §4

[5] = test system: DRG neurons; assay: [Ca2+]i-responses in cultured DRG neurons; type: cell-based, mice
Method: (§5) DRG neurons were prepared from adult male or female mice using methods described previously. Isolated neurons were maintained in MEM AQ (5.6 mM glucose) supplemented with 10% fetal bovine serum, 100 U/ml penicillin, 100 µg/ml streptomycin and 50 ng/ml NGF (Promega, Southampton, UK) for less than 24 hours before experimentation.
Cells were loaded with 2 µM Fura-2 AM (Molecular Probes, Paisley, UK) in the presence of 1 mM probenecid for ∼1 hr. The experiments were performed in a physiological saline solution containing (in mM) 140 NaCl, 5 KCl, 10 glucose, 10 HEPES, 2 CaCl2, and 1 MgCl2, buffered to pH 7.4 with NaOH. Compounds were applied to cells by local continuous microperfusion of solution through a fine tube placed in close proximity of the cells studied. Images of a group of cells were captured every 2 sec using 340 and 380 nm excitation wavelengths with emission measured at 520 nm with a microscope based imaging system (PTI, New Jersey). Analyses of emission intensity ratios at 340 nm/380 nm excitation (R, in individual cells) were performed using the ImageMaster suite of software.

[6] = test system: DRG neurons; assay: Voltage clamp recordings of DRG neurons; type: cell-based, mice; settings: -60 mV, 15 µM Ca2+, a proportion of neurons
Method: as §5, §1

[7] = target: T2, mouse TRPA1 (Mus musculus, UniProt Q8BLA8); assay: [Ca2+]i-responses in CHO cells expressing mouse TRPA1; type: cell-based; settings: CHO cells expressing mouse TRPA1, extracellular application; read-out: EC50, increases in [Ca2+]i
T2 construct: expressed in transfected cells; host or cells: CHO cells
Method: as §2, §3, §4

[8] = test system: TRPA1; assay: Whole cell voltage-clamp, TRPA1 CHO cells; type: cell-based; settings: MG 0.5 mM (Fig. 1B)
Method: as §1

[9] = test system: TRPA1; assay: Outward TRPA1 currents in absence of Ca2+, effect of DTT; type: cell-based; settings: MG 1 mM, +60 mV, Ca2+-free
Method: as §1
It is possible that MG stimulates TRPA1 through formation of reversible hemithioacetals with cysteine residues other than those examined here, [40]. To investigate this possibility we examined the effect of the reducing agent dithiothreitol (DTT, 2 mM) on outward TRPA1 currents recorded in the absence of Ca^2+ (5 mM BAPTA intracellularly, 1 mM EGTA extracellularly) to avoid Ca^2+-mediated inactivation or desensitization. We used DTT to determine whether disulfide bridge formation or reversible noncovalent interactions contribute to the agonist activity of MG. DTT is expected to rapidly reduce cystine bridges to free thiols, but also to form hemithioacetals with MG, thereby accelerating current decay. Covalent modification of arginine and lysine residues by MG and modification of cysteine residues by AITC are on the other hand resistant to DTT [31]. […] This is consistent with the expected oxidative formation of cystine bridges and their reduction by DTT [4]. The contrast between the stable currents produced by H2O2 and the spontaneously reversible currents evoked by MG highlights the reversible nature of the interaction between MG and TRPA1. […] We also observed that repeated applications of MG and H2O2 evoked reproducible current responses of similar amplitudes, whereas an application of AITC prevented subsequent channel activation by AITC challenges (Fig. 4C-E). We conclude that MG acts through a reversible interaction with TRPA1 and that H2O2 relies on DTT sensitive oxidative modification of TRPA1 protein for its activity. […] In contrast, the covalent modification produced by AITC appears irreversible and renders TRPA1 refractory to subsequent activation.

T1 sequence (O75762 whole entry): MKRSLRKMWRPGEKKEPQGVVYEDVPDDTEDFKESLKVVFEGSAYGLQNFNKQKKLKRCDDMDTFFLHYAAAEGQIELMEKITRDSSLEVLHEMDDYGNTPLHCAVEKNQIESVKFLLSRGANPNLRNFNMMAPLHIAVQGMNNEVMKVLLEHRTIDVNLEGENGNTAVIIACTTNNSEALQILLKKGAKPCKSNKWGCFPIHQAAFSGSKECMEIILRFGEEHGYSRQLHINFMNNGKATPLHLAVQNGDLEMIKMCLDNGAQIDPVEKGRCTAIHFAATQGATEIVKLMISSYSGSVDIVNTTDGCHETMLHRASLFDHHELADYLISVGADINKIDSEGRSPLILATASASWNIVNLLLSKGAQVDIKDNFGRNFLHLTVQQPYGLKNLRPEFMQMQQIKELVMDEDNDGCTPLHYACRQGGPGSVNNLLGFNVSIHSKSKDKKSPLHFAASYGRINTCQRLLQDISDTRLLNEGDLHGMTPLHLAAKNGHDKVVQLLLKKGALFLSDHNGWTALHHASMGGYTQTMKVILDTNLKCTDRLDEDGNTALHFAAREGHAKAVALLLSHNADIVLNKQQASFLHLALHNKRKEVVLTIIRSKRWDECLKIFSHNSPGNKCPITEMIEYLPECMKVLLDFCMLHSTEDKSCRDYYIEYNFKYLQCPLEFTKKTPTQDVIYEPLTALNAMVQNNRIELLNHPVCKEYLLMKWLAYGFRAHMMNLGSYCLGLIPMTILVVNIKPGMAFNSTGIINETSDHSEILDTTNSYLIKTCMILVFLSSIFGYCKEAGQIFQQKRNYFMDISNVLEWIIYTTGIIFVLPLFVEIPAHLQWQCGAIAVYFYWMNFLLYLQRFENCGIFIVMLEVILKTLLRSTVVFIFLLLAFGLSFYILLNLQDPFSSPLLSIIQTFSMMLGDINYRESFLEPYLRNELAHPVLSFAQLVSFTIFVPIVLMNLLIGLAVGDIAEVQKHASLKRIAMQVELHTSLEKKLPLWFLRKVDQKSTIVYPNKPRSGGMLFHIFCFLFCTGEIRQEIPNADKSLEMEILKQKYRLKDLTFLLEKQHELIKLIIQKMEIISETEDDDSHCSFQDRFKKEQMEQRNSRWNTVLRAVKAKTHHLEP
T2 sequence (Q8BLA8 whole entry): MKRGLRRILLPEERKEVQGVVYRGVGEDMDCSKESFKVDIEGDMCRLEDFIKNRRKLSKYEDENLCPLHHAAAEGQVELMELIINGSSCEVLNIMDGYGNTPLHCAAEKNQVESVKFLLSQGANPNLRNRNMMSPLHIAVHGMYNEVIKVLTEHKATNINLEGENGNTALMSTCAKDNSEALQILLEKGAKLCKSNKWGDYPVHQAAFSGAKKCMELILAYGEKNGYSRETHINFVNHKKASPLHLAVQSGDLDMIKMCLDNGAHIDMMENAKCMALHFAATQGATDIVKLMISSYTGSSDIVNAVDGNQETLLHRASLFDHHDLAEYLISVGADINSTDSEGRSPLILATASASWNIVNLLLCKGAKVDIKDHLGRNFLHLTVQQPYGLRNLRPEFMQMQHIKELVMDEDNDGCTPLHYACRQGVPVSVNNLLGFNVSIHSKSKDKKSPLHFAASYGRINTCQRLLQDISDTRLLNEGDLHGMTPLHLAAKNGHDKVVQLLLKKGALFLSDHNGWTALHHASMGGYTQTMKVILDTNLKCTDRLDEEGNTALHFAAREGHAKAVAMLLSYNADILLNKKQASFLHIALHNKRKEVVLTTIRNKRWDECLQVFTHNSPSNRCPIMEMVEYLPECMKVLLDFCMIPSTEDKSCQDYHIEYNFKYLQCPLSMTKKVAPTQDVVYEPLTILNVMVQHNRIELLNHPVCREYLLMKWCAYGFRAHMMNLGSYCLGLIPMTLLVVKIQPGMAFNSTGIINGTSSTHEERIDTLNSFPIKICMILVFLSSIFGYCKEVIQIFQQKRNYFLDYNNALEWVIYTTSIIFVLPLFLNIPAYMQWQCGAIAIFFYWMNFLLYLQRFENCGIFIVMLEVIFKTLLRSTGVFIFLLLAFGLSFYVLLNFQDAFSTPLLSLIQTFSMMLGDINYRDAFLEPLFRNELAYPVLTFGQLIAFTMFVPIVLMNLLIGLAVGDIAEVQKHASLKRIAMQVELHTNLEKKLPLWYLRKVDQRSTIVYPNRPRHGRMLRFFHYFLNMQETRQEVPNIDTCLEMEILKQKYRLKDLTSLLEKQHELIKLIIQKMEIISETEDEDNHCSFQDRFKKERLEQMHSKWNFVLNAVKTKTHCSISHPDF

EC50 [1]: 74 µM
EC50 [4]: 700 ± 200 µM
EC50 [7]: 900 ± 100 µM
Structure (SMILES): CC(=O)C=O [MG, methylglyoxal]
pain-related behaviors during 2 min after injection [2]: induced a significant nociceptive response
effect on [Ca2+]i [3]: had no effect
capsaicin-sensitive DRG neurons with [Ca2+]i-responses ([5]; neurons from Trpa1+/+ mice (240 of 333)): 72%
DRG neurons with [Ca2+]i-responses ([5]; neurons from Trpa1-/- mice (1 of 322)): 0%
current in DRG neurons [6]: evoked robust inward currents
whole cell current [8]: produced inward currents
effect of DTT (2 mM) on agonist-evoked TRPA1 current [9]: dramatically accelerated the TRPA1 current decay
outward TRPA1 current after removal of agonist [9]: partially decayed with time after removal of MG
